Among the data in US20080139558A1, “QUINOLONES USEFUL AS INDUCIBLE NITRIC OXIDE SYNTHASE INHIBITORS” (KALYPSYS, INC., priority 2006, published 2008) are EC50 values, retold here.

pEC50: −log10 of the molar value.

T1 sequence (P35228 whole entry): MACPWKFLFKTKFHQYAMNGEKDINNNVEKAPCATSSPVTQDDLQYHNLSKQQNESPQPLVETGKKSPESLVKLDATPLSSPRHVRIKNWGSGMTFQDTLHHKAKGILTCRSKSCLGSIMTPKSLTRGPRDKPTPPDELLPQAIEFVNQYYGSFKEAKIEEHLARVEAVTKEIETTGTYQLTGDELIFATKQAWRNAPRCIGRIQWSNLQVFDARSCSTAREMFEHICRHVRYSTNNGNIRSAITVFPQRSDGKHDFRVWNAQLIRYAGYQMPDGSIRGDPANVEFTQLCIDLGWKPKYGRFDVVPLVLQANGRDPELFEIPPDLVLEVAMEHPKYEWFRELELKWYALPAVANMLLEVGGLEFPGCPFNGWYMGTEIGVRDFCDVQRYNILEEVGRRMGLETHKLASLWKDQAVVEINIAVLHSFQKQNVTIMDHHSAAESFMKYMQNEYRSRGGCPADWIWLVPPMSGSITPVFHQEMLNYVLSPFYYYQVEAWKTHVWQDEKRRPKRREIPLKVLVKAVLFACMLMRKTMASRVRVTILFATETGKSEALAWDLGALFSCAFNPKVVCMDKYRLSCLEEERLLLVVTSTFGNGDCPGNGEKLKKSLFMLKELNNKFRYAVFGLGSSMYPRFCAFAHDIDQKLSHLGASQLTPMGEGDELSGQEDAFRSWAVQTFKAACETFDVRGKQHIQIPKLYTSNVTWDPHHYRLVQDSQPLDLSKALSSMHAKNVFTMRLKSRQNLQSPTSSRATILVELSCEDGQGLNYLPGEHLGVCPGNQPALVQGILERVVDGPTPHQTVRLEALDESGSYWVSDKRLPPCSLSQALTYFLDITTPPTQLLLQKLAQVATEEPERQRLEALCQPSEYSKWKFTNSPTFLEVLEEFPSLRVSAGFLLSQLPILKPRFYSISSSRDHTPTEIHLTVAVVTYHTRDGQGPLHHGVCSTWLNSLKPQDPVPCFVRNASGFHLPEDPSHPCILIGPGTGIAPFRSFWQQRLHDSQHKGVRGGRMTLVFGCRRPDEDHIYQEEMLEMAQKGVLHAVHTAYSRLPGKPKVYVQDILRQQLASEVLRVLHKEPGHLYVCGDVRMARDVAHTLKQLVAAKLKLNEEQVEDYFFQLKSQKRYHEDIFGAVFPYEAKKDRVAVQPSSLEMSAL

The test has as its target T1, human iNOS (Homo sapiens, UniProt P35228).
T1 construct: expressed in transfected cells; host or cells: HEK293
Kind of test: DAN assay of nitric oxide production (hiNOS). The class given is cell-based. The settings on record: enzyme expressed in HEK293 cells transiently transfected with human iNOS. A digest of the protocol: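 Human iNOS transiently expressed in HEK293 cells; NO production quantified as nitrite via 2,3-diaminonaphthalene reaction forming fluorescent naphthotriazole.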
In turn, `Cc1c(-c2ccccc2)nc(C(C)C)n1Cc1cc(=O)[nH]c2c(F)c(F)ccc12` [Example 258, 7,8-Difluoro-4-((2-isopropyl-5-methyl-4-phenyl-1H-imidazol-1-yul)methyl)quinolin-2(1H)-one] showed a negative logarithm of the EC50 (pEC50) of under 5.30.

Turning to `Cc1ncsc1C(=O)N(Cc1cc(=O)[nH]c2c(F)cccc12)C1CC1` [Example 87, N-Cyclopropyl-N-((8-fluoro-2-oxo-1,2-dihydroquinolin-4-yl)methyl)-4-methylthiazole-5-carboxamide], the negative-log EC50 (pEC50) is under 5.30.

The compound `CN(Cc1cc(=O)[nH]c2ccccc12)C(=O)c1ccco1` [Example 8, N-Methyl-N-[(2-oxo-1,2-dihydroquinolin-4-yl)methyl]-2-furamide] gave a negative-log EC50 (pEC50) of at least 5.30.

As for `Cc1noc(C)c1-c1nc2ccccc2n1Cc1cc(=O)[nH]c2c(F)c(F)ccc12` [Example 232, 4-((2-(3,5-Dimethylisoxazol-4-yl)-1H-benzo[d]imidazol-1-yl)methyl)-7,8-difluoroquinolin-2(1H)-one], the negative logarithm of the EC50 (pEC50) is at least 5.30.

In the case of `O=C(c1ccc2ncccc2c1)N(Cc1cc(=O)[nH]c2c(F)cccc12)c1cccc(Cl)c1` [Example 84, N-(3-Chlorophenyl)-N-((8-fluoro-2-oxo-1,2-dihydroquinolin-4-yl)methyl)quinoline-6-carboxamide], the pEC50 was under 5.30.

Compound `CC(C)N(Cc1cc(=O)[nH]c2ccccc12)C(=O)c1ccco1` [Example 9, N-Isopropyl-N-[(2-oxo-1,2-dihydroquinolin-4-yl)methyl]-2-furamide] gave a negative logarithm of the EC50 (pEC50) of at least 5.30.

`O=c1cc(CN(CCc2ccco2)c2ccccc2)c2ccccc2[nH]1` [Example 23, 4-(((2-(Furan-2-yl)ethyl)(phenyl)amino)methyl)quinolin-2(1H)-one]: the negative-log EC50 (pEC50) is at least 5.30.

The compound `Cc1ncsc1C(=O)N(Cc1cc(=O)[nH]c2c(F)c(F)ccc12)c1cccc(C#N)c1` [Example 186, N-(3-Cyanophenyl)-N-((7,8-difluoro-2-oxo-1,2-dihydroquinolin-4-yl)methyl)-4-methylthiazole-5-carboxamide] gave a negative logarithm of the EC50 (pEC50) of at least 5.30.

Regarding `CC(Cc1nc2ccccc2n1Cc1cc(=O)[nH]c2c(F)c(F)ccc12)C(F)(F)F` (racemic) [Example 222, 7,8-Difluoro-4-((2-(3,3,3-trifluoro-2-methylpropyl)-1H-benzo[d]imidazol-1-yl)methyl)quinolin-2(1H)-one], the negative-log EC50 (pEC50) was at least 5.30.

As for `Cc1ncsc1C(=O)N(Cc1cc(=O)[nH]c2ccccc12)c1ccc(F)c(Cl)c1` [Example 39, N-(3-Chloro-4-fluorophenyl)-4-methyl-N-((2-oxo-1,2-dihydroquinolin-4-yl)methyl)thiazole-5-carboxamide], the negative logarithm of the EC50 (pEC50) was under 5.30.

For the compound `Cc1ncsc1C(=O)N(Cc1cc(=O)[nH]c2c(Cl)cccc12)c1cccc(Cl)c1` [Example 49, N-((8-Chloro-2-oxo-1,2-dihydroquinolin-4-yl)methyl)-N-(3-chlorophenyl)-4-methylthiazole-5-carboxamide], the negative-log EC50 (pEC50) was under 5.30.

Regarding `Cc1ncsc1C(=O)N(Cc1cc(=O)[nH]c2c(F)c(F)ccc12)c1cccc(Cl)c1` [Example 53, N-(3-Chlorophenyl)-N-((7,8-difluoro-2-oxo-1,2-dihydroquinolin-4-yl)methyl)-4-methylthiazole-5-carboxamide], the pEC50 is at least 5.30.

Turning to `Cc1ccc(C(=O)N(Cc2cc(=O)[nH]c3c(F)cccc23)c2cccc(Cl)c2)cc1` [Example 59, N-(3-Chlorophenyl)-N-((8-fluoro-2-oxo-1,2-dihydroquinolin-4-yl)methyl)-4-methylbenzamide], the negative-log EC50 (pEC50) is under 5.30.

In turn, `CC(C)c1ncc(-c2ccccc2)n1Cc1cc(=O)[nH]c2c(F)c(F)ccc12` [Example 255, 7,8-Difluoro-4-((2-isopropyl-5-phenyl-1H-imidazol-1-yl)methyl)quinolin-2(1H)-one] had a negative logarithm of the EC50 (pEC50) of under 5.30.

`CC(C)(C)Cc1nc2ccccc2n1Cc1cc(=O)[nH]c2c(F)c(F)ccc12` [Example 237, 7,8-Difluoro-4-((2-neopentyl-1H-benzo[d]imidazol-1-yl)methyl)quinolin-2(1H)-one]: the negative-log EC50 (pEC50) was under 5.30.

Compound `Cc1ncsc1C(=O)N(Cc1cc(=O)[nH]c2c(F)c(F)ccc12)c1ccccc1F` [Example 90, N-(2-Fluorophenyl)-N-((7,8-fluoro-2-oxo-1,2-dihydroquinolin-4-yl)methyl)-4-methylthiazole-5-carboxamide] had a negative logarithm of the EC50 (pEC50) of at least 5.30.

Turning to `O=C(c1ccncc1)N(Cc1cc(=O)[nH]c2ccccc12)c1ccccc1` [Example 34, N-((2-Oxo-1,2-dihydroquinolin-4-yl)methyl)-N-phenylisonicotinamide], the negative-log EC50 (pEC50) was under 5.30.

Turning to `CCC(CC)c1nc2ccccc2n1Cc1cc(=O)[nH]c2c(F)c(F)ccc12` [Example 217, 7,8-Difluoro-4-((2-(pentan-3-yl)-1H-benzo[d]imidazol-1-yl)methyl)quinolin-2(1H)-one], the pEC50 was at least 5.30.

`Cc1ncsc1C(=O)N(Cc1cc2cccc(F)c2[nH]c1=O)c1ccc(N2CCCCC2)cc1` [Example 174, N-((8-Fluoro-2-oxo-1,2-dihydroquinolin-3-yl)methyl)-4-methyl-N-(piperidin-1-yl)phenylthiazole-5-carboxamide] had a pEC50 of under 5.30.

In the case of `O=c1cc(Cn2c(Cn3ccnc3)nc3ccccc32)c2ccc(F)c(F)c2[nH]1` [Example 251, 4-((2-((1H-Imidazol-1-yl)methyl)-1H-benzo[d]imidazol-1-yl)methyl)-7,8-difluoroquinolin-2(1H)-one], the negative-log EC50 (pEC50) is under 5.30.

`O=C(c1ccco1)N(Cc1cc(=O)[nH]c2ccccc12)c1ccncc1` [Example 13, N-[(2-Oxo-1,2-dihydroquinolin-4-yl)methyl]-N-pyridin-4-yl-2-furamide] gave a negative logarithm of the EC50 (pEC50) of at least 5.30.

Regarding `Cc1ccncc1C(=O)N(Cc1cc2cccc(F)c2[nH]c1=O)c1cccc(Cl)c1` [Example 172, N-(3-Chlorophenyl)-N-((8-fluoro-2-oxo-1,2-dihydroquinolin-3-yl)methyl)-4-methylnicotinamide], the pEC50 is under 5.30.

Regarding `O=C(c1ccco1)N(Cc1cc(=O)[nH]c2ccc(F)cc12)c1ccccc1` [Example 18, N-((6-Fluoro-2-oxo-1,2-dihydroquinolin-4-yl)methyl)-N-phenylfuran-2-carboxamide], the pEC50 is under 5.30.

`CCC(C)Cc1nc2ccccc2n1Cc1cc(=O)[nH]c2c(F)c(F)ccc12` (racemic) [Example 220, 7,8-Difluoro-4-((2-(2-methylbutyl)-1H-benzo[d]imidazol-1-yl)methyl)quinolin-2(1H)-one] showed a negative-log EC50 (pEC50) of at least 5.30.

Compound `O=C1CCN(c2ccccc2)N1Cc1cc(=O)[nH]c2c(F)c(F)ccc12` [Example 252, 7,8-Difluoro-4-((5-oxo-2-phenylpyrazolidin-1-yl)methyl)quinolin-2(1H)-one] gave a pEC50 of at least 5.30.

Compound `Cc1ncsc1C(=O)N(Cc1cc(=O)[nH]c2c(F)c(F)ccc12)c1cc(Cl)ccc1F` [Example 88, N-(3-Chloro-6-fluorophenyl)-N-((7,8-fluoro-2-oxo-1,2-dihydroquinolin-4-yl)methyl)-4-methylthiazole-5-carboxamide] gave a pEC50 of at least 5.30.

Compound `O=C(Cc1ccccc1)N(Cc1cc(=O)[nH]c2ccccc12)c1ccccc1` [Example 25, N-((2-Oxo-1,2-dihydroquinolin-4-yl)methyl)-N,2-diphenylacetamide] gave a pEC50 of at least 5.30.
